From publication PMC9596378, “Discovery and molecular basis of subtype-selective cyclophilin inhibitors” (Nature Chemical Biology, 2022)
Several values for one entry are separate records, joined by “and”; a condition that tells them apart may be missing. Equal entries are not always repeated. Where two headings read alike, the source gives them in different places.

Experiments:
CypC = molecular target: T1, CypC (Homo sapiens, UniProt P45877); assay: Chymotrypsin coupled prolyl-isomerase assay; assay type: biochemical
T1 construct: PPIC (UniProtKB Entry P45877: residues 24–212); host or cells: E. coli BL21(DE3)
Procedure, shortened: (§1)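 Recombinant cyclophilin (5 nM final) in 25 mM HEPES pH 7.3, 100 mM NaCl, 0.01% Triton X-100 was preincubated with compound at 2–3 °C. It was then coupled with 25 µM α-chymotrypsin and 5 µM Suc-AAPF-AMC (LiCl/TFE), and AMC fluorescence was followed for 330 s.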

CypE = molecular target: T2, CypE (Homo sapiens, UniProt Q9UNP9); assay: Chymotrypsin coupled prolyl-isomerase assay; assay type: biochemical; conditions: wild-type CypE; read-out: Wild-Type Cyclophilin Prolyl Isomerase Inhibition IC50 Values, CypE
T2 construct: PPIE (UniProtKB Entry Q9UNP9: residues 131–301); host or cells: E. coli BL21(DE3)
Procedure, shortened: as §1

CypH = molecular target: T3, CypH (Homo sapiens, UniProt O43447); assay: Chymotrypsin coupled prolyl-isomerase assay; assay type: biochemical
T3 construct: PPIH (UniProtKB Entry O43447: residues 1–177); His6 with TEV site (2BT vector leader) (N); made in house; host or cells: E. coli BL21(DE3)
Procedure, shortened: as §1

CypG = molecular target: T4, CypG (Homo sapiens, UniProt Q13427); assay: Chymotrypsin coupled prolyl-isomerase assay; assay type: biochemical
T4 construct: PPIG (UniProtKB Entry Q13427: residues 1–179); His6 with thrombin site (pET28a LIC leader) (N); host or cells: E. coli BL21(DE3)
T4 sequence (Q13427 1-179): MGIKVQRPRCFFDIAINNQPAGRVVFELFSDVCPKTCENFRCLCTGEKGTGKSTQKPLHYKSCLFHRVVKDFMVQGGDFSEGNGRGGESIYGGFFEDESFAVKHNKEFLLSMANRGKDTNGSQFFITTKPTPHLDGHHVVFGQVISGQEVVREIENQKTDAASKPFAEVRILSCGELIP
Procedure, shortened: as §1

CypA = molecular target: T5, CypA (Homo sapiens, UniProt P62937); assay: Chymotrypsin coupled prolyl-isomerase assay; assay type: biochemical; conditions: wild-type CypA; read-out: Wild-Type Cyclophilin Prolyl Isomerase Inhibition IC50 Values, CypA
T5 construct: PPIA (UniProtKB Entry P62937: residues 1–165); made in house; host or cells: E. coli BL21(DE3)
Procedure, shortened: as §1

[1] = test system: isolated mouse liver mitochondria; assay: Mitochondrial calcium retention capacity assay (mPTP opening); conditions: for calcium retention capacity before mPTP opening (in words): 2 µM CsA, 10 µM B52-Cy5/*B52-Cy5, 20 µM B53-Cy5/*B53-Cy5, vs DMSO; for Normalized # Pulses (calcium retention capacity ratio to DMSO): 60 µM CaCl2 pulses, individual mitochondrial preparations
Protocol: All procedures used in animal studies were approved by the Institutional Animal Care and Use Committee at Massachusetts General Hospital. Female C57BL/6J mice (Jackson Labs) age 10–12 weeks were anesthetized by isoflurane. The liver from one mouse was rinsed in ice-cold PBS, minced in ice-cold isolation buffer containing 0.28 M sucrose, 10 mM Hepes-KOH pH 7.2, 0.2 mM EDTA and 1% (w/v) bovine serum albumin, gently homogenized with four strokes of a tight-fitting Teflon pestle at 1,000 r.p.m., and then centrifuged for 10 min at 600g at 4 °C. The supernatant was recovered and centrifuged for 10 min at 8,000g at 4 °C. The loose outer buffy coat was rinsed off and the pellet resuspended gently in isolation buffer and the spins were repeated. […] The suspension was kept on ice and all assays performed within 4–6 h following isolation. Quality control was done with every preparation by adding 250 mcg mitochondria to 500 µL assay buffer containing 137 mM KCl, 10 mM Hepes-KOH pH 7.2, 2.5 mM MgCl2, 5 mM each of glutamate and malate, and 3 mM KH2PO4. Sequential 150 µM ADP pulses were then delivered. Only preparations with respiratory control ratio >6 (as assessed by the ratio of ADP-coupled state 3 respiration to state 4 respiration) were used for further experiments. Measurements were made in a custom-built spectrometer.
Two hundred and fifty micrograms of mouse liver mitochondria isolated as above were added to 500 µL assay buffer containing 125 mM KCl, 20 mM Hepes-KOH pH 7.2, 1 mM MgCl2, 5 mM each of glutamate and malate, and 3 mM KH2PO4. 0.5 µM Calcium Green 5N (Molecular Probes) was included to monitor extramitochondrial free Ca^2+. Fluorescence was continuously monitored in the custom-built fluorimeter described above, with excitation 470 nm and emission 520–560 nm. […] The calcium retention capacity ratio was obtained by normalizing the number of Ca^2+ pulses that could be taken up in a given condition by that taken up under DMSO control conditions, as previously described.

[2] = wild-type CypC, read-out: Wild-Type Cyclophilin Prolyl Isomerase Inhibition IC50 Values, CypC
[3] = wild-type CypH, read-out: Wild-Type Cyclophilin Prolyl Isomerase Inhibition IC50 Values, CypH
[4] = wild-type CypG, read-out: Wild-Type Cyclophilin Prolyl Isomerase Inhibition IC50 Values, CypG

T5 sequence (P62937 whole entry, the tested form may be a part): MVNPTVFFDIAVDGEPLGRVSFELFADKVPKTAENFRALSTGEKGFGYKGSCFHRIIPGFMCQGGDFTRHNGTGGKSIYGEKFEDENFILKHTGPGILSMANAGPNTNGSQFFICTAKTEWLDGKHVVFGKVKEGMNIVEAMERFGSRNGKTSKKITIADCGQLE
T1 sequence (P45877 24-212): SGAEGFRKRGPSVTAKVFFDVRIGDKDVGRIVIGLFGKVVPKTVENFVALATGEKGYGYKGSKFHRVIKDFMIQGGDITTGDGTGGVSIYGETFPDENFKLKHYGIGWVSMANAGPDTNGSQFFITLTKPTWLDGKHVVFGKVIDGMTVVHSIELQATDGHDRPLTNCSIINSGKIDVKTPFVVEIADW
T2 sequence (Q9UNP9 131-301): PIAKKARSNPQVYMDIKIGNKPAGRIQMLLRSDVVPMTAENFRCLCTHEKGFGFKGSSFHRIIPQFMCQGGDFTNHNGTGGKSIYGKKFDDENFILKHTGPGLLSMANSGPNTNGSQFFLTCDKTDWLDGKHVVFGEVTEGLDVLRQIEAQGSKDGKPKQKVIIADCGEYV
T3 sequence (O43447 whole entry, the tested form may be a part): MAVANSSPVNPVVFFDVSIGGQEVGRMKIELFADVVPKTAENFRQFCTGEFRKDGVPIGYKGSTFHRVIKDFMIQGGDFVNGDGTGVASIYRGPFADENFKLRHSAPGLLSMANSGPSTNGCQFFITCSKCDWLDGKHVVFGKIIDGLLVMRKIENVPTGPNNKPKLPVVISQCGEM

SMILES | IC50 (CypC; [2]) [µM] | IC50 (CypE) [µM] | IC50 (CypH; [3]) [µM] | IC50 (CypG; [4]) [µM] | IC50 (CypA) [µM] | calcium retention capacity before mPTP opening (in words) [1] | Normalized # Pulses (calcium retention capacity ratio to DMSO) ([1]; 10 µM compound) | Normalized # Pulses (calcium retention capacity ratio to DMSO) ([1]; 20 µM compound) | IC50 (CypC; prolyl-isomerase inhibition, 5 nM cyclophilin, read-out: IC50 CypC) [µM] | IC50 (CypH; prolyl-isomerase inhibition, 5 nM cyclophilin, read-out: IC50 CypH) [µM] | IC50 (CypG; prolyl-isomerase inhibition, 5 nM cyclophilin, read-out: IC50 CypG) [µM]
C[N+]1=C(C=CC=CC=C2N(CCCCCC(=O)NCCNC(=O)C3CCNC(=O)C=CC(=O)N4CCCC(Cc5ccccc5)(C4)C(=O)NC(Cc4ccc(-c5ccc(CC(C(=O)O)C(=O)O)cc5)cc4)C(=O)NCc4ccccc4CC(=O)N3)c3ccccc3C2(C)C)C(C)(C)c2ccccc21 (stereo not shown) [*B52-Cy5] | > 10 | > 10 | > 10 | > 10 | > 10 | do not influence calcium retention capacity | 1 | – | – | – | –
C[N+]1=C(C=CC=CC=C2N(CCCCCC(=O)NCCNC(=O)C3CCNC(=O)C=CC(=O)N4CCCC(Cc5ccccc5)(C4)C(=O)NC(Cc4ccc(-c5ccc(C(CC(=O)O)CC(=O)O)cc5)cc4)C(=O)NCc4ccccc4CC(=O)N3)c3ccccc3C2(C)C)C(C)(C)c2ccccc21 (stereo not shown) [*B53-Cy5] | > 10 | > 10 | > 10 | > 10 | > 10 | do not influence calcium retention capacity | – | 1 | – | – | –
C[N+]1=C(C=CC=CC=C2N(CCCCCC(=O)NCCNC(=O)C3CCNC(=O)C=CC(=O)N4CCCC(Cc5ccccc5)(C4)C(=O)NC(Cc4ccc(-c5ccc(CC(C(=O)O)C(=O)O)cc5)cc4)C(=O)NCc4ccccc4CC(=O)N3)c3ccccc3C2(C)C)C(C)(C)c2ccccc21 (stereo not shown) [Compound B52-Cy5] | 5 | 1 | 10 | 10 | 0.19 | substantially increased calcium retention capacity | 4.333 and 3 and 4 | – | ~5 | ~10 | ~10
C[N+]1=C(C=CC=CC=C2N(CCCCCC(=O)NCCNC(=O)C3CCNC(=O)C=CC(=O)N4CCCC(Cc5ccccc5)(C4)C(=O)NC(Cc4ccc(-c5ccc(C(CC(=O)O)CC(=O)O)cc5)cc4)C(=O)NCc4ccccc4CC(=O)N3)c3ccccc3C2(C)C)C(C)(C)c2ccccc21 (stereo not shown) [Compound B53-Cy5] | > 2 | 1.1 | > 2 | > 2 | 0.3 | substantially increased calcium retention capacity | – | 2.667 and 1.25 and 2 | – | – | –
